Measured values: paper PMC9301721 (ACS Omega, 2022)

How the values were obtained:
[1] = test system: 14-3-3ε and FOXO3a interaction; conditions: cells expressing the 9J10 probe; cited from earlier work
14-3-3ε = conditions: pull-down and mass spectrometry; cited from earlier work
crystal structure = molecular target: the molecule itself; experiment: crystal structure

Q: What does the source list for LNTRPGRRRNpSN [9J10]?
A: Interaction between 14-3-3ε and FOXO3a in cells expressing the probe [1]: sharp reduction in the interaction between 14-3-3ε and FOXO3a; 14-3-3 proteins interacting with probe (pull-down, MS) (14-3-3ε): 14-3-3ε is one among the abundant 14-3-3 proteins interacting with 9J10

B1: 14-3-3εΔC (aa 1-232) (domain or fragment, human, UniProt P62258 1-232, looked up)
chain: MDDREDLVYQAKLAEQAERYDEMVESMKKVAGMDVELTVEERNLLSVAYKNVIGARRASWRIISSIEQKEENKGGEDKLKMIREYRQMVETELKLICCDILDVLDKHLIPAANTGESKVFYYKMKGDYHRYLAEFATGNDRKEAAENSLVAYKAASDIAMTELPPTHPIRLGLALNFSVFYYEILNSPDRACRLAKAAFDDAIAELDTLSEESYKDSTLIMQLLRDNLTLWT
Q: Does B1 bind (crystal structure)?
A: binds
